In one test the target is T1, human CYP4A11 (Homo sapiens, UniProt Q02928).
T1 construct: host or cells: Escherichia coli (membrane fraction)
T1 sequence (Q02928 5-519): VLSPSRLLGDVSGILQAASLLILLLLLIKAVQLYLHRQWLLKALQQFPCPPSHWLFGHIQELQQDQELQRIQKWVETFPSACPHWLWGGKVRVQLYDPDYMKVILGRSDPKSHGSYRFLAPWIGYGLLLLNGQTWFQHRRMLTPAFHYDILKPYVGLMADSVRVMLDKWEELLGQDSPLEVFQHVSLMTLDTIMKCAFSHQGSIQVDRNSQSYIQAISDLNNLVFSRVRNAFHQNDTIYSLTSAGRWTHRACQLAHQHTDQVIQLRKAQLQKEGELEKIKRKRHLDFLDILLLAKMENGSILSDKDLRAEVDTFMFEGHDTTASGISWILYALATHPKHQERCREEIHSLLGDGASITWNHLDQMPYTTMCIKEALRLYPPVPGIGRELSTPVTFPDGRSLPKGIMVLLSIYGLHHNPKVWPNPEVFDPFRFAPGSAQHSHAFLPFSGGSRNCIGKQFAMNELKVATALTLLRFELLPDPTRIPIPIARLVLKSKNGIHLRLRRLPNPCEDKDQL
Briefly: CYP4A11 inhibition test (Test Example 1). In kind it is biochemical. As to conditions: Escherichia coli membrane fraction expressing human CYP4A11, 60 μM luciferine derivative, room temperature 60 minutes, luminescence. The procedure: (§1) (1) Inhibition Test for Each Compound of the Present Invention Against 20-HETE Producing Enzymes (CYP4F2 and CYP4A11)
(§2) In the CYP4F2 inhibition test, the reaction solution containing each compound [final concentration of 50 mM, KPO4 (pH 7.4), 2.5 μM, luciferine derivative and 1 mM NADPH] was added to an Escherichia coli membrane fraction (100 μg/mL, protein) in which human CYP4F2 had been expressed. In the CYP4A11 inhibition test, the reaction solution containing each compound [final concentration of 100 mM, Tris-HCl (pH 7.5), 60 μM, luciferine derivative, 1.3 mM NADP^+, 3.3 mM Glucose 6-Phosphate, 3.3 mM MgCl2 and 0.4 U/mL Glucose 6-Phosphate dehydrogenase] was added to an Escherichia coli membrane fraction (100 μg/mL, protein) in which human CYP4A11 had been expressed. Following this, the membrane fraction was left to stand at room temperature for 60 minutes to perform an enzymatic reaction. After the reaction, a luciferine detection reagent was added, and the luminescence value was measured using a plate reader.
(§3) A: Luminescence value with addition of compound
(§4) B: Luminescence value without addition of compound and enzyme
(§5) C: Luminescence value without addition of compound

The next test concerns the target T2, human CYP4F2 (Homo sapiens, UniProt P78329).
T2 construct: host or cells: Escherichia coli (membrane fraction)
T2 sequence (P78329 5-520): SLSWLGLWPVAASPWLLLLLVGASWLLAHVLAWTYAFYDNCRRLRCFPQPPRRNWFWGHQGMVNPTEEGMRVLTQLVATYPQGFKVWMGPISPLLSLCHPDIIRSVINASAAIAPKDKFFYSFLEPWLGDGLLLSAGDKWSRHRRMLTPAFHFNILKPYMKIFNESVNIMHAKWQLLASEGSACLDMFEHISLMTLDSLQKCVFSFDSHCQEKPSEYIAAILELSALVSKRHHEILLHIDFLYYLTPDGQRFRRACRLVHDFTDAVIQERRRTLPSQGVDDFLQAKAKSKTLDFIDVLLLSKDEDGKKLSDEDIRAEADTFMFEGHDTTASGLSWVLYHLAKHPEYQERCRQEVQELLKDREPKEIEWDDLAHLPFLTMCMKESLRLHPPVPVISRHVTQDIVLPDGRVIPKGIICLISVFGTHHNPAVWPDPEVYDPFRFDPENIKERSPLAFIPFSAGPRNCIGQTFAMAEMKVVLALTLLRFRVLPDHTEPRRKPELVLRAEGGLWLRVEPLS
Briefly: CYP4F2 inhibition test (Test Example 1). It counts as biochemical. Particulars: Escherichia coli membrane fraction expressing human CYP4F2, 2.5 μM luciferine derivative, room temperature 60 minutes, luminescence. The procedure:
as §1, §2, §3, §4, §5

Consider `O=C(C1CCOCC1)N1CCC[C@@H](COc2ccc(-c3ccn[nH]3)nc2)C1` [Example 3-9], for which the concentration for half-maximal inhibition (IC50) (usually the concentration at which inhibition is half-maximal) on human CYP4A11 is 2000 nM; at human CYP4F2, 1300 nM.
Consider `O=C(N1CCC[C@@H](COc2ccc(-c3ccn[nH]3)nc2)C1)C(F)(F)C1(O)CCOCC1` [Example 3-10], for which the 50% inhibitory concentration (IC50) amounted to 600 nM against human CYP4A11 and 430 nM at human CYP4F2.
The corresponding values for `O=C(N1CCC[C@@H](COc2ccc(-c3ccn[nH]3)nc2)C1)C(F)(F)C1(O)CCCC1` [Example 3-11] are 190 nM and 52 nM.
With `O=C(CN1CCCS1(=O)=O)N1CCC[C@@H](COc2ccc(-c3ccn[nH]3)nc2)C1` [Example 3-12], the IC50 against human CYP4A11 stood at 2800 nM; against human CYP4F2, 2600 nM.
The corresponding values for `O=C(CC1CCS(=O)(=O)C1)N1CCC[C@@H](COc2ccc(-c3ccn[nH]3)nc2)C1` (stereo partly shown) [Example 3-13] are 1500 nM and 280 nM.
With `CC(=O)NCC(=O)N1CCC[C@@H](COc2ccc(-c3ccn[nH]3)nc2)C1` [Example 3-15], the half-maximal inhibitory concentration (IC50) against human CYP4A11 was found to be 1200 nM; against human CYP4F2 it was 7100 nM.
Taken in the same sequence, the figures for `O=C(NCC(=O)N1CCC[C@@H](COc2ccc(-c3ccn[nH]3)nc2)C1)OCc1ccccc1` [Example 3-17] were 77 nM and 17 nM.
The corresponding values for `CC(C)(C)OC(=O)NCCC(=O)N1CCC[C@@H](COc2ccc(-c3ccn[nH]3)nc2)C1` [Example 3-18] are 50 nM and 18 nM.
The corresponding values for `NC(=O)CCC(=O)N1CCC[C@@H](COc2ccc(-c3ccn[nH]3)nc2)C1` [Example 3-19] are 1000 nM and 2400 nM.
In the case of `O=C(CCC(=O)N1CCC[C@@H](COc2ccc(-c3ccn[nH]3)nc2)C1)N1CCOCC1` [Example 3-20], the IC50 worked out at 3300 nM against human CYP4A11 and 650 nM against human CYP4F2.
The corresponding values for `NC(=O)NCCCC(=O)N1CCC[C@@H](COc2ccc(-c3ccn[nH]3)nc2)C1` [Example 3-21] are 800 nM and 720 nM.
The corresponding values for `CC(=O)N1CCCC1C(=O)N1CCC[C@@H](COc2ccc(-c3ccn[nH]3)nc2)C1` (stereo partly shown) [Example 3-23] are 3200 nM and 4700 nM.
Taken in the same sequence, the figures for `CC(=O)N1CCC(C(=O)N2CCC[C@@H](COc3ccc(-c4ccn[nH]4)nc3)C2)CC1` [Example 3-24] were 2000 nM and 490 nM.
As for `NC(=O)COc1ccc(C(=O)N2CCC[C@@H](COc3ccc(-c4ccn[nH]4)nc3)C2)cc1` [Example 3-25], the IC50 against human CYP4A11 was found to be 560 nM; on human CYP4F2 it was 110 nM.
The corresponding values for `NC(=O)COc1ccccc1C(=O)N1CCC[C@@H](COc2ccc(-c3ccn[nH]3)nc2)C1` [Example 3-26] are 1200 nM and 9200 nM.
Taken in the same sequence, the figures for `O=C(c1cc(CO)ccn1)N1CCC[C@@H](COc2ccc(-c3ccn[nH]3)nc2)C1` [Example 3-27] were 310 nM and 700 nM.
Taken in the same sequence, the figures for `O=C(Cn1ccccc1=O)N1CCC[C@@H](COc2ccc(-c3ccn[nH]3)nc2)C1` [Example 3-28] were 2400 nM and 3200 nM.
`O=C(COc1ccccc1)N1CCC[C@@H](COc2ccc(-c3ccn[nH]3)nc2)C1` [Example 3-29]: the IC50 on human CYP4A11 was 79 nM; against human CYP4F2 it was 50 nM.
Taken in the same sequence, the figures for `O=C(CS(=O)(=O)c1ccccc1)N1CCC[C@@H](COc2ccc(-c3ccn[nH]3)nc2)C1` [Example 3-30] were 110 nM and 250 nM.
With `O=C(CCCOc1ccccc1)N1CCC[C@@H](COc2ccc(-c3ccn[nH]3)nc2)C1` [Example 3-31], the concentration for half-maximal inhibition (IC50) on human CYP4A11 turned out to be 43 nM; against human CYP4F2 it was 4.9 nM.
Taken in the same sequence, the figures for `O=C(CC1CCCCC1)N1CCC[C@@H](COc2ccc(-c3ccn[nH]3)nc2)C1` [Example 3-32] were 460 nM and 15 nM.
The corresponding values for `O=C(CC1CCOCC1)N1CCC[C@@H](COc2ccc(-c3ccn[nH]3)nc2)C1` [Example 3-33] are 2500 nM and 220 nM.
Taken in the same sequence, the figures for `NC(=O)C1(C(=O)N2CCC[C@@H](COc3ccc(-c4ccn[nH]4)nc3)C2)CC1` [Example 3-34] were 770 nM and 45000 nM.
As for `CC(C)(O)CC(=O)N1CCC[C@@H](COc2ccc(-c3ccn[nH]3)nc2)C1` [Example 3-35], the half-maximal inhibitory concentration (IC50) on human CYP4A11 came to 1300 nM; against human CYP4F2 it was 790 nM.
The corresponding values for `O=C(CCS(=O)(=O)C(F)(F)F)N1CCC[C@@H](COc2ccc(-c3ccn[nH]3)nc2)C1` [Example 3-36] are 710 nM and 90 nM.
The corresponding values for `O=C(CCC1CCCCC1)N1CCC[C@@H](COc2ccc(-c3ccn[nH]3)nc2)C1` [Example 3-37] are 290 nM and 8.3 nM.
The corresponding values for `O=C(CCN1CCCS1(=O)=O)N1CCC[C@@H](COc2ccc(-c3ccn[nH]3)nc2)C1` [Example 3-38] are 1800 nM and 380 nM.
Regarding `O=C(CN1CCCOC1=O)N1CCC[C@@H](COc2ccc(-c3ccn[nH]3)nc2)C1` [Example 3-39], the IC50 was 3400 nM on human CYP4A11 and 3500 nM at human CYP4F2.
Turning to `CN(CC(=O)N1CCC[C@@H](COc2ccc(-c3ccn[nH]3)nc2)C1)C(=O)OC(C)(C)C` [Example 3-40], the IC50 at human CYP4A11 was 930 nM; against human CYP4F2, 370 nM.
The corresponding values for `CCCCNC(=O)NCC(=O)N1CCC[C@@H](COc2ccc(-c3ccn[nH]3)nc2)C1` [Example 3-41] are 230 nM and 180 nM.
On to `CC(=O)N(C)CCC(=O)N1CCC[C@@H](COc2ccc(-c3ccn[nH]3)nc2)C1` [Example 3-42], for which the values for the concentration for half-maximal inhibition (IC50) against human CYP4A11 and against human CYP4F2 were 1800 nM and 900 nM, respectively.
The corresponding values for `CC(=O)NCCCC(=O)N1CCC[C@@H](COc2ccc(-c3ccn[nH]3)nc2)C1` [Example 3-43] are 720 nM and 570 nM.
Taken in the same sequence, the figures for `CC(C)(C)OC(=O)NCCCC(=O)N1CCC[C@@H](COc2ccc(-c3ccn[nH]3)nc2)C1` [Example 3-44] were 100 nM and 18 nM.
Taken in the same sequence, the figures for `O=C(NCCC(=O)N1CCC[C@@H](COc2ccc(-c3ccn[nH]3)nc2)C1)c1ccccc1` [Example 3-45] were 70 nM and 24 nM.
In the case of `CC(C)(C)OC(=O)N1CC(C(=O)N2CCC[C@@H](COc3ccc(-c4ccn[nH]4)nc3)C2)C1` [Example 3-46], the values for the concentration for half-maximal inhibition (IC50) at human CYP4A11 and against human CYP4F2 were 290 nM and 23 nM, respectively.
Taken in the same sequence, the figures for `CC(C)(C)OC(=O)N1CC[C@H]1C(=O)N1CCC[C@@H](COc2ccc(-c3ccn[nH]3)nc2)C1` [Example 3-47] were 2100 nM and 530 nM.
Taken in the same sequence, the figures for `CC(=O)N1CCC(CCOc2ccc(-c3ccn[nH]3)nc2)CC1` [Example 4-1, 1-[4-(2-{[6-(1H-Pyrazol-5-yl)pyridin-3-yl]oxy}ethyl)piperidin-1-yl]ethan-1-one] were 550 nM and 120 nM.
As to `CC(C)C(=O)N1CCC(CCOc2ccc(-c3ccn[nH]3)nc2)CC1` [Example 4-2], the figures for the IC50 against human CYP4A11 and on human CYP4F2 were 380 nM and 50 nM, respectively.
Taken in the same sequence, the figures for `O=C(c1ccccc1)N1CCC(CCOc2ccc(-c3ccn[nH]3)nc2)CC1` [Example 4-3] were 270 nM and 210 nM.
Taken in the same sequence, the figures for `CC(CO)(CO)C(=O)N1CCC[C@@H](COc2ccc(-c3ccn[nH]3)nc2)C1` [Example 4-4] were 310 nM and 4500 nM.
The corresponding values for `O=C(NCCC(=O)N1CCC[C@@H](COc2ccc(-c3ccn[nH]3)nc2)C1)C1CCOCC1` [Example 4-5] are 370 nM and 93 nM.

The record behind these values is US20210040062A1, “AZOLE-SUBSTITUTED PYRIDINE COMPOUND” (TAISHO PHARMACEUTICAL CO., LTD., priority 2016, published 2021).
